Laboratory results from patent US9296694B2, “Azacyclic compounds” (ACADIA Pharmaceuticals Inc., priority 2000, dated 2016).
Where a name gives a salt, the structure may show the parent alone.

What was measured:
Experiment in all cases: R-SAT selectivity profile of 26HCH16D
alpha1b/B = target: T1, alpha1b/B (Mesocricetus auratus, UniProt P18841); assay type: cell-based, hamster; conditions: 4 doses in duplicate (3, 30, 300, 3000 nM)
T1 construct: expressed in transfected cells; host or cells: NIH3T3, pSI vector
T1 sequence (P18841 1-515): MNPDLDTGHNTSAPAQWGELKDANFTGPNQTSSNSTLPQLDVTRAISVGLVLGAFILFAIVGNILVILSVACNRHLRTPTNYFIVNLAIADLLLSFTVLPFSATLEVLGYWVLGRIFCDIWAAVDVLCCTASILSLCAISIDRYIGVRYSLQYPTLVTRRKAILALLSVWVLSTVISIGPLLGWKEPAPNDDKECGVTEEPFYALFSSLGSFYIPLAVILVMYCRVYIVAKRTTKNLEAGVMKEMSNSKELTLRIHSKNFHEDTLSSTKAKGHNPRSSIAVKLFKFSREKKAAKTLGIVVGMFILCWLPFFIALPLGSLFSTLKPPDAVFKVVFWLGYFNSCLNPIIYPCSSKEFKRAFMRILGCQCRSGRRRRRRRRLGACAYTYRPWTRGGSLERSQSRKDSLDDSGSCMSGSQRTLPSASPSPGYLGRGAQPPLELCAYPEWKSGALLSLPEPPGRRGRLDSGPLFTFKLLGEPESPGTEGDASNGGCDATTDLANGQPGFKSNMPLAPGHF
Experimental: The functional receptor assay, Receptor Selection and Amplification Technology (R-SAT), was used (with minor modifications from that previously described U.S. Pat. No. 5,707,798) to screen compounds for efficacy at the 5-HT2A receptor. Briefly, NIH3T3 cells were grown in 96 well tissue culture plates to 70-80% confluence. Cells were transfected for 12-16 hours with plasmid DNAs using superfect (Qiagen Inc.) as per manufacture's protocols. R-SAT's were generally performed with 50 ng/well of receptor and 20 ng/well of Beta-galactosidase plasmid DNA. All receptor and G-protein constructs used were in the pSI mammalian expression vector (Promega Inc) as described in U.S. Pat. No. 5,707,798. The 5HT2A receptor gene was amplified by nested PCR from brain cDNA using the oligodeoxynucleotides based on the published sequence (see Saltzman et. al. Biochem. Biophys. Res. Comm. 181:1469-78 (1991)). Large-scale transfections, cells were transfected for 12-16 hours, then trypsinized and frozen in DMSO. […] Media was then removed from the plates and marker gene activity was measured by the addition of the beta-galactosidase substrate ONPG (in PBS with 5% NP-40). The resulting colorimetric reaction was measured in a spectrophotometric plate reader (Titertek Inc.) at […]. All data were analyzed using the computer program XLFit (IDBSm). […]

5HT1A [1] = target: T2, 5HT1A (Rattus norvegicus, UniProt P19327); assay type: cell-based; conditions: Antagonist; 4 doses in duplicate (3, 30, 300, 3000 nM)
T2 construct: expressed in transfected cells; host or cells: NIH3T3, pSI vector
T2 sequence (P19327 1-422): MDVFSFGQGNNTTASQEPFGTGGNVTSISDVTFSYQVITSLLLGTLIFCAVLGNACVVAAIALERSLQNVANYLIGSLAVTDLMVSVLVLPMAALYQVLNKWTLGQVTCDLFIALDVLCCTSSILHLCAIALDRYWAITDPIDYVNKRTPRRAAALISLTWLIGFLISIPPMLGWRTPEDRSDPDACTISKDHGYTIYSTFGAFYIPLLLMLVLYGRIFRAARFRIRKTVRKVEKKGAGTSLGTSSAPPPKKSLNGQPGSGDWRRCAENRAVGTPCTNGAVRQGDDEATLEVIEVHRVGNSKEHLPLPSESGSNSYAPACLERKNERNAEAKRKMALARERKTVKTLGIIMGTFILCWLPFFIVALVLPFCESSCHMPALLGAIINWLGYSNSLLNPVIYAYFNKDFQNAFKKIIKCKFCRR
Experimental: (§1) The functional receptor assay, Receptor Selection and Amplification Technology (R-SAT), was used (with minor modifications from that previously described U.S. Pat. No. 5,707,798) to screen compounds for efficacy at the 5-HT2A receptor. Briefly, NIH3T3 cells were grown in 96 well tissue culture plates to 70-80% confluence. Cells were transfected for 12-16 hours with plasmid DNAs using superfect (Qiagen Inc.) as per manufacture's protocols. R-SAT's were generally performed with 50 ng/well of receptor and 20 ng/well of Beta-galactosidase plasmid DNA. All receptor and G-protein constructs used were in the pSI mammalian expression vector (Promega Inc) as described in U.S. Pat. No. 5,707,798. The 5HT2A receptor gene was amplified by nested PCR from brain cDNA using the oligodeoxynucleotides based on the published sequence (see Saltzman et. al. Biochem. Biophys. Res. Comm. 181:1469-78 (1991)). Large-scale transfections, cells were transfected for 12-16 hours, then trypsinized and frozen in DMSO. Frozen cells were later thawed, plated at 10,000-40,000 cells per well of a 96 well plate that contained drug. With both methods, cells were then grown in a humidified atmosphere with 5% ambient CO2 for five days. Media was then removed from the plates and marker gene activity was measured by the addition of the beta-galactosidase substrate ONPG (in PBS with 5% NP-40). The resulting colorimetric reaction was measured in a spectrophotometric plate reader (Titertek Inc.) at […]. All data were analyzed using the computer program XLFit (IDBSm). Efficacy is the percent maximal repression compared to repression by a control compound (ritanserin in the case of 5HT2A). pIC50 is the negative of the log(IC50), where IC50 is the calculated concentration in Molar that produces 50% maximal repression.
(§2) R-SAT assays (as described in Example 42) were carried out with cells transfected with receptors (listed below) to determine the receptor selectivity profile for compound 26HCH16D. 5HT2A inverse agonist data (IC50 nM; % efficacy) were derived from detailed dose response curves (7 points in triplicate).

5HT2C = target: T3, 5HT2C (Homo sapiens, UniProt P28335); assay type: cell-based; conditions: Inverse Agonist; 4 dose profiling
T3 construct: expressed in transfected cells; host or cells: NIH3T3, pSI vector
T3 sequence (P28335 33-458): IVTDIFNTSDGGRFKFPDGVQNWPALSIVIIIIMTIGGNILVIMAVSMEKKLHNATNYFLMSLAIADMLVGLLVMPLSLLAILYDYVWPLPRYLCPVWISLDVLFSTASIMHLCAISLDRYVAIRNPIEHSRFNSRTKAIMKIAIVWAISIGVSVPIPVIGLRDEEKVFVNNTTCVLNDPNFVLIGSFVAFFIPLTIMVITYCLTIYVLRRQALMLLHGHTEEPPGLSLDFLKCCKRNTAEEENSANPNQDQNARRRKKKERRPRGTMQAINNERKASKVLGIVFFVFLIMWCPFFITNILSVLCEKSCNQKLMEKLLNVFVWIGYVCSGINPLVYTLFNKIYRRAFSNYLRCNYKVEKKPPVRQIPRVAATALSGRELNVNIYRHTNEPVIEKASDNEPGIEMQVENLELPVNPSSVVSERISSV
Experimental: as §1, §2

D2 = target: T4, D2 (Homo sapiens, UniProt P14416); assay type: cell-based
T4 construct: expressed in transfected cells; host or cells: NIH3T3, pSI vector
Experimental: as §1, §2

5HT1A [2] = target: T5, 5HT1A (Homo sapiens, UniProt P08908); assay type: cell-based; conditions: 4 doses in duplicate (3, 30, 300, 3000 nM)
T5 construct: expressed in transfected cells; host or cells: NIH3T3, pSI vector
T5 sequence (P08908 1-422): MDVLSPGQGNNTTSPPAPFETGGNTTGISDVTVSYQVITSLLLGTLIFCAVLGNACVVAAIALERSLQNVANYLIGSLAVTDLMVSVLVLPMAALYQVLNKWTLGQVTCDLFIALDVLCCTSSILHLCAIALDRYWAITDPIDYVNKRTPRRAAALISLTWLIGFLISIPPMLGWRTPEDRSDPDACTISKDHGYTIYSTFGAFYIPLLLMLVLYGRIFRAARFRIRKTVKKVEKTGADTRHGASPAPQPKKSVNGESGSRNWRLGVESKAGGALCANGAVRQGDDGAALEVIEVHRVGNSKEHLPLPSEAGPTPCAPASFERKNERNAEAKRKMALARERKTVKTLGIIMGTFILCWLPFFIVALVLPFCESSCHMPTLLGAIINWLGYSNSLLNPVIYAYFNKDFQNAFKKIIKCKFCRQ
Experimental: as §1, §2

T4 sequence (P14416 whole entry): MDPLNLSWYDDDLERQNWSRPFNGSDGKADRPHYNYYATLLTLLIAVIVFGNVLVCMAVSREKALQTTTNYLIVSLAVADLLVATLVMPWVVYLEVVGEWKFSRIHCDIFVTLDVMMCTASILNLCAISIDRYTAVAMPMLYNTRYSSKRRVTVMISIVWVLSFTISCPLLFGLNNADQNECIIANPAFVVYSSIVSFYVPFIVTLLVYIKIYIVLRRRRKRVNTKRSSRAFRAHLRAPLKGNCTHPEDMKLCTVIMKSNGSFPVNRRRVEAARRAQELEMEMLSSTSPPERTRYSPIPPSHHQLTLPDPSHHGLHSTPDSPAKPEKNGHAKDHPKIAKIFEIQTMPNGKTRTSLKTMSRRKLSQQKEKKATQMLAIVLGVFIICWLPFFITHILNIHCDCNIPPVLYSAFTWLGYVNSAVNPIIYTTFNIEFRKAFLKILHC

Question: What does the source list for `Cc1ccc(CN(C(=O)NCc2ccccc2)C2CCN(Cc3ccccc3)CC2)cc1` [Compound 26HCH16D, N-((4-Methylphenyl)methyl)-N-(1-(phenylmethyl)piperidin-4-yl)-N′-phenylmethylcarbamide hydrochloride]?
Answer: Efficacy (alpha1b/B; Agonist): nr (nr=activity less than 30% at all doses tested (3, 30, 300, 3000 nM), therefore EC50/IC50 greater than 3000 nM)); Efficacy (alpha1b/B; Antagonist): nr (nr=activity less than 30% at all doses tested (3, 30, 300, 3000 nM), therefore EC50/IC50 greater than 3000 nM)); Efficacy (5HT1A [1]): nr (nr=activity less than 30% at all doses tested (3, 30, 300, 3000 nM), therefore EC50/IC50 greater than 3000 nM)); initial concentration at which at least 30% efficacy observed (5HT2C): 3000 nM; Efficacy (D2; Agonist, 4 doses in duplicate (3, 30, 300, 3000 nM)): nr (nr=activity less than 30% at all doses tested (3, 30, 300, 3000 nM), therefore EC50/IC50 greater than 3000 nM)); initial concentration at which at least 30% efficacy observed (D2; Antagonist, 4 dose profiling): 3000 nM; Efficacy (5HT1A [2]; Agonist): nr (nr=activity less than 30% at all doses tested (3, 30, 300, 3000 nM), therefore EC50/IC50 greater than 3000 nM)); Efficacy (5HT1A [2]; Antagonist): nr (nr=activity less than 30% at all doses tested (3, 30, 300, 3000 nM), therefore EC50/IC50 greater than 3000 nM))
